pKi: −log10 of the molar value.
What was measured:
[1] = molecular target: Muscarinic acetylcholine receptor M3 (Homo sapiens, UniProt P20309)
[2] = molecular target: T1, Muscarinic acetylcholine receptor M4 (Homo sapiens, UniProt P08173)
T1 sequence (P08173 whole entry): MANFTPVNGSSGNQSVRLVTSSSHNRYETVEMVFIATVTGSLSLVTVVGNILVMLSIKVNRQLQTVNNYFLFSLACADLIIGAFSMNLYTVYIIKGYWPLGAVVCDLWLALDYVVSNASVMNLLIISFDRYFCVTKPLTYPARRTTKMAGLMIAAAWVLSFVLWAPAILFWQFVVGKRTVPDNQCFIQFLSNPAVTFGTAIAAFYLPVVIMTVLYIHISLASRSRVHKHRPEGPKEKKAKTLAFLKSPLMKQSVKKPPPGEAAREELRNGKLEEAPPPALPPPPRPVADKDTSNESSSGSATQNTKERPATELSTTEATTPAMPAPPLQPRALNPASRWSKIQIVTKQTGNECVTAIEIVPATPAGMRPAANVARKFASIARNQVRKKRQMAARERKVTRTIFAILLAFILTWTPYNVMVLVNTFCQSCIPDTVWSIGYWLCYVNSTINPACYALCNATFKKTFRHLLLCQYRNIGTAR

[3] = molecular target: T2, Muscarinic acetylcholine receptor M5 (Homo sapiens, UniProt P08912)
T2 sequence (P08912 whole entry): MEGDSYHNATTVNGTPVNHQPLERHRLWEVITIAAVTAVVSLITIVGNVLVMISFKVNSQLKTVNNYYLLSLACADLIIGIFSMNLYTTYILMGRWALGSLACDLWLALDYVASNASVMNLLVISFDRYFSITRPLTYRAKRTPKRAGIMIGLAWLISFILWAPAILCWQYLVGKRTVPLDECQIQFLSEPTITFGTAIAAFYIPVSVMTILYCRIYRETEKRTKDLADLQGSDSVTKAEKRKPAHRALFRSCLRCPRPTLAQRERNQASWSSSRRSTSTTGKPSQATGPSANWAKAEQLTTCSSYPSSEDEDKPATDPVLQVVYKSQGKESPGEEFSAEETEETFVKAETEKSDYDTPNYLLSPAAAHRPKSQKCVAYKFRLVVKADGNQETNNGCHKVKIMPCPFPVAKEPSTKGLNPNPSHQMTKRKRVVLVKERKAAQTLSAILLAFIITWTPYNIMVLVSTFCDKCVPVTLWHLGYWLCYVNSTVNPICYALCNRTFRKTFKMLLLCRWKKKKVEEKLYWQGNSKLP

[4] = molecular target: T3, Muscarinic acetylcholine receptor M1 (Homo sapiens, UniProt P11229)
T3 sequence (P11229 whole entry): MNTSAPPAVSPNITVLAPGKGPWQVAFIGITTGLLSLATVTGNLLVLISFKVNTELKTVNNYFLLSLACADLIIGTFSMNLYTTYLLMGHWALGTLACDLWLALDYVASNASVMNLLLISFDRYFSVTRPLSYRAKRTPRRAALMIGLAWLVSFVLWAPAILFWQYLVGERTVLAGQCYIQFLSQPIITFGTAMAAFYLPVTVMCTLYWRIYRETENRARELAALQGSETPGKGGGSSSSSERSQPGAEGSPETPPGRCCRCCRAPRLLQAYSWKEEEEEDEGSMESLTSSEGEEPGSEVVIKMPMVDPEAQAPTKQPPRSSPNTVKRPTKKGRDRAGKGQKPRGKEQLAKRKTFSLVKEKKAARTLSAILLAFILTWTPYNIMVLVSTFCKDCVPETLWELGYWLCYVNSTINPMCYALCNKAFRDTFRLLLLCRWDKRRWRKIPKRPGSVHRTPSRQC

Chain of Muscarinic acetylcholine receptor M3 (P20309 whole entry): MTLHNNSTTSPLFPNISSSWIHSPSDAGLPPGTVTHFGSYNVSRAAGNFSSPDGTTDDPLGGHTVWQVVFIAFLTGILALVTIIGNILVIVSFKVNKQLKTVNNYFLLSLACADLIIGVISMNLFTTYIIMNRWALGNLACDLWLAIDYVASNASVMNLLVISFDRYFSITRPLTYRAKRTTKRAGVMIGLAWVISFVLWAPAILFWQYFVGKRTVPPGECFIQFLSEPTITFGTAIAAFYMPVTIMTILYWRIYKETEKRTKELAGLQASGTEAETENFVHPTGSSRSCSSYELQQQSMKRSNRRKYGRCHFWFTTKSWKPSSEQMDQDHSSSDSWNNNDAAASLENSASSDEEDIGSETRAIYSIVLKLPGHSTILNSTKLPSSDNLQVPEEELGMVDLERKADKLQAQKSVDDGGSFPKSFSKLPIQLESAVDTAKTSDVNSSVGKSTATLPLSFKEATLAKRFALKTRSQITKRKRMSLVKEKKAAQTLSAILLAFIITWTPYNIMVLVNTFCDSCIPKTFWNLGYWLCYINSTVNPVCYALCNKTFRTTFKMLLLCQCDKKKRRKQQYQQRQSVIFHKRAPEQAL

SMILES: COc1ccccc1CNCCCCCCNCCCCCCCCNCCCCCCNCc1ccccc1OC [METHOCTRAMINE]
- pKi [1]: 6.56
- pKi [2]: 7.42
- pKi [3]: 6.50

SMILES: CN(CCCCCCCCN(C)CCCCCCN(CC(=O)N1c2ccccc2C(=O)Nc2cccnc21)CC(=O)N1c2ccccc2C(=O)Nc2cccnc21)CCCCCCNCC(=O)N1c2ccccc2C(=O)Nc2cccnc21 [NSC_132947]
- pKi [1]: 7.42
- pKi [2]: 8.19
- pKi [4]: 8.80
- pKi [3]: 7.47

Source: BindingDB's records for doi:10.1016/0922-4106(94)90075-2 (University of Pisa, 1994)
